pKi: −log10 of the molar value.
Legend:
[1] = Mutant factor of the compound against mu-[K303E] with Opioid receptor kappa 1 for binding affinity
[2] = Mutant factor against mu-[K303E] with Opioid receptor kappa 1 for binding affinity

SMILES	pKi [1]	pKi [2]
NC(N)=Nc1ccc2[nH]c3c(c2c1)C[C@@]1(O)[C@H]2Cc4ccc(O)c5c4[C@@]1(CCN2CC1CC1)[C@H]3O5	10.22	–
N#CN=C(N)Nc1ccc2[nH]c3c(c2c1)C[C@@]1(O)C2Cc4ccc(O)c5c4[C@@]1(CCN2CC1CC1)[C@H]3O5 [5'-[N-(N'-Cyano)guanidinyl]-17-cyclopropylmethyl-6,7-didehydro-4,5alpha-epoxy-3,14-dihydroxyindolo[2',3':6,7]morphinan]	–	9.54
Oc1ccc2c3c1O[C@H]1c4[nH]c5c(c4C[C@@]4(O)[C@@H](C2)N(CC2CC2)CC[C@]314)C[C@@]1(O)[C@H]2Cc3ccc(O)c4c3[C@@]1(CCN2CC1CC1)[C@H]5O4 [C18130]	–	9.11

Reference: BindingDB's records for doi:10.1021/jm9805182 (University of Minnesota, 1999)
